This is an account of results in patent US12384789B2, “Compounds for treating Huntington's disease” (PTC Therapeutics, Inc., priority 2017, dated 2025).

The assay has as its system Endogenous Huntingtin Protein. Description: Endogenous Huntingtin Protein Assay (Meso Scale Discovery ELISA-based electrochemiluminescence). The class given is cell-based. As to conditions: MSD electrochemiluminescence, Table 1. Put shortly: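 MSD electrochemiluminescence sandwich ELISA: MW1 (expanded polyQ) or MAB2166 capture antibody at 1 μg/mL, samples incubated overnight at 4° C. Detection with rabbit monoclonal #5656S then SULFO-TAG anti-rabbit antibody, each 0.25 μg/mL for 1 h at room temperature.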
Background: ELISA stands for enzyme-linked immunosorbent assay.
By IC50 is commonly meant the concentration that gives 50% inhibition. High values mean weaker potency, low ones greater potency. `CCN1[C@H](C)CC(c2cc3c(F)cc(-c4cc(C)c5nc(C)cn5n4)cc3nn2)C[C@H]1C` (stereo partly drawn) [Compound 125, 7-(2,8-dimethylimidazo[1,2-b]pyridazin-6-yl)-3-[(2R,6R)-1-ethyl-2,6-dimethylpiperidin-4-yl]-5-fluorocinnoline] gave a half-inhibitory concentration (IC50) of no more than 100 nM.
As for `CC[C@H]1CC(c2cc3c(F)cc(-c4cc(C)c5nc(C)cn5n4)cc3nn2)C[C@H](CC)N1C` (stereo partly drawn) [Compound 131, 3-[(2S,6S)-2,6-diethyl-1-methylpiperidin-4-yl]-7-(2,8-dimethylimidazo[1,2-b]pyridazin-6-yl)-5-fluorocinnoline], the figure is no more than 100 nM; as for `Cc1cn2nc(-c3cc(F)c4cc(C5CCCN(CCO)CC5)nnc4c3)cc(C)c2n1` (centres unmarked) [Compound 190, 2-{4-[7-(2,8-dimethylimidazo[1,2-b]pyridazin-6-yl)-5-fluorocinnolin-3-yl]azepan-1-yl}ethan-1-ol], no more than 100 nM; as for `Cc1cc(-c2cc(F)c3cc(C4CCNCC4)ncc3c2)cc2cn(C)nc12` [Compound 71, 7-(2,7-dimethyl-2H-indazol-5-yl)-5-fluoro-3-(piperidin-4-yl)isoquinoline], no more than 100 nM.
The same measure for `Cc1cn2nc(-c3cc(F)c4cc(N5CC6(CCCNC6)C5)nnc4c3)cc(C)c2n1` [Compound 218, 3-(2,6-diazaspiro[3.5]nonan-2-yl)-7-(2,8-dimethylimidazo[1,2-b]pyridazin-6-yl)-5-fluorocinnoline]: no more than 100 nM; for `COc1cc(-c2cc(F)c3cc(C4CCNCC4)nnc3c2)nc2cn(C)nc12` [Compound 163, 5-fluoro-7-(7-methoxy-2-methyl-2H-pyrazolo[4,3-b]pyridin-5-yl)-3-(piperidin-4-yl)cinnoline]: no more than 100 nM.
`Cc1cn2nc(-c3cc(F)c4cc(N5CC6(CCNCC6)C5)nnc4c3)cc(C)c2n1` [Compound 221, 3-(2,7-diazaspiro[3.5]nonan-2-yl)-7-(2,8-dimethylimidazo[1,2-b]pyridazin-6-yl)-5-fluorocinnoline] showed a half-inhibitory concentration (IC50) of no more than 100 nM.
As for `Cn1nc2cc(-c3cc4c(F)cc(C5=CCNCC5)cc4nn3)cc(F)c2n1` [Compound 171, 5-fluoro-3-(7-fluoro-2-methyl-2H-benzotriazol-5-yl)-7-(1,2,3,6-tetrahydropyridin-4-yl)cinnoline], the figure is no more than 100 nM; as for `Cc1cn2nc(-c3cc(F)c4cc(C5CC(C)N(CCO)C(C)C5)nnc4c3)cc(C)c2n1` (centres unmarked) [Compound 155, 2-{(25,65)-4-[7-(2,8-dimethylimidazo[1,2-b]pyridazin-6-yl)-5-fluorocinnolin-3-yl]-2,6-dimethylpiperidin-1-yl}ethan-1-ol], no more than 100 nM.
On to `Cc1cn2nc(-c3cc(F)c4cc(N5CCNCC5)nnc4c3)cc(C)c2n1` [Compound 80, 7-(2,8-dimethylimidazo[1,2-b]pyridazin-6-yl)-5-fluoro-3-(piperazin-1-yl)cinnoline], for which the IC50 was no more than 100 nM.
The same measure for `Cc1cn2nc(-c3cc(F)c4cc(C5CCCNC5)nnc4c3)cc(C)c2n1` (centres unmarked) [Compound 216, 7-(2,8-dimethylimidazo[1,2-b]pyridazin-6-yl)-5-fluoro-3-(piperidin-3-yl)cinnoline]: no more than 100 nM; for `Cc1cn2cc(-c3cc(F)c4nc(C5CCNCC5)ccc4c3)cc(F)c2n1` [Compound 50, 8-fluoro-6-(8-fluoro-2-methylimidazo[1,2-a]pyridin-6-yl)-2-(piperidin-4-yl)quinoline]: no more than 100 nM.
As for `CCN1CCC(c2cc(F)c3nc(-c4cc(F)c5nn(C)cc5c4)ncc3c2)CC1` [Compound 202, 6-(1-ethylpiperidin-4-yl)-8-fluoro-2-(7-fluoro-2-methyl-2H-indazol-5-yl)quinazoline], the figure is no more than 100 nM; as for `CCN1CCC(c2cc3c(F)cc(-c4nc5c(C)nc(C)cc5o4)cc3nn2)CC1` [Compound 136, 7-(4,6-dimethyl[1,3]oxazolo[4,5-c]pyridin-2-yl)-3-(1-ethylpiperidin-4-yl)-5-fluorocinnoline], no more than 100 nM; as for `Cn1cc2cc(-c3cc(F)c4nc(C5CCNCC5)ncc4c3)cc(C#N)c2n1` [Compound 35, 5-[8-fluoro-2-(piperidin-4-yl)quinazolin-6-yl]-2-methyl-2H-indazole-7-carbonitrile], no more than 100 nM.
As for `Cc1cn2nc(-c3cc(F)c4cc(C5CCN(C(C)C)CC5)nnc4c3)cc(C)c2n1` [Compound 78, 7-(2,8-dimethylimidazo[1,2-b]pyridazin-6-yl)-5-fluoro-3-[1-(propan-2-yl)piperidin-4-yl]cinnoline], the figure is no more than 100 nM; as for `CCOc1cc(-c2cc(F)c3nc(C4CCNCC4)nnc3c2)nn2cc(C)nc12` [Compound 59, 7-(8-ethoxy-2-methylimidazo[1,2-b]pyridazin-6-yl)-5-fluoro-3-(piperidin-4-yl)-1,2,4-benzotriazine], no more than 100 nM.
`Cc1cn2nc(-c3cc(F)c4cc(C5CCCN(C)CC5)nnc4c3)cc(C)c2n1` (centres unmarked) [Compound 188, 7-(2,8-dimethylimidazo[1,2-b]pyridazin-6-yl)-5-fluoro-3-(1-methylazepan-4-yl)cinnoline] returned an IC50 of no more than 100 nM.
The same measure for `Cc1cn2nc(-c3cc(F)c4cc(C5CCN(CCF)CC5)nnc4c3)cc(CO)c2n1` [Compound 182, (6-{5-fluoro-3-[1-(2-fluoroethyl)piperidin-4-yl]cinnolin-7-yl}-2-methylimidazo[1,2-b]pyridazin-8-yl)methanol]: no more than 100 nM; for `Cc1cn2nc(-c3cc(F)c4cc(N5CC[C@@H](N(C)C)C5)nnc4c3)cc(C)c2n1` [Compound 89, (3R)-1-[7-(2,8-dimethylimidazo[1,2-b]pyridazin-6-yl)-5-fluorocinnolin-3-yl]-N,N-dimethylpyrrolidin-3-amine]: no more than 100 nM.
For `Cc1cn2nc(-c3cc(F)c4cc(C5CCNCC5)nnc4c3)cc(CCO)c2n1` [Compound 207, 2-{6-[5-fluoro-3-(piperidin-4-yl)cinnolin-7-yl]-2-methylimidazo[1,2-b]pyridazin-8-yl}ethan-1-ol], the 50% inhibitory concentration (IC50) is no more than 100 nM.
`Cc1nc2c(C)cc(-c3cc(F)c4cc(C5CCNCC5)nnc4c3)nc2[nH]1` [Compound 126, 7-(2,7-dimethyl-3H-imidazo[4,5-b]pyridin-5-yl)-5-fluoro-3-(piperidin-4-yl)cinnoline] registered an IC50 of no more than 100 nM.
`Cc1cn2nc(-c3cc(F)c4cc(C5CCNCC5)nnc4c3)cc(OCCN(C)C)c2n1` [Compound 138, 2-({6-[5-fluoro-3-(piperidin-4-yl)cinnolin-7-yl]-2-methylimidazo[1,2-b]pyridazin-8-yl}oxy)-N,N-dimethylethan-1-amine] came in with an IC50 of 100 to 500 nM.
Turning to `Cc1cn2cc(-c3cc4c(F)cc(C5=CCNCC5)cc4nn3)cc(F)c2n1` [Compound 117, 5-fluoro-3-(8-fluoro-2-methylimidazo[1,2-a]pyridin-6-yl)-7-(1,2,3,6-tetrahydropyridin-4-yl)cinnoline], the IC50 is no more than 100 nM.
As for `Cc1cn2nc(-c3cc(F)c4cc(C5CCNCC5)nnc4c3)cc(OCCCn3cccn3)c2n1` [Compound 141, 5-fluoro-7-{2-methyl-8-[3-(1H-pyrazol-1-yl)propoxy]imidazo[1,2-b]pyridazin-6-yl}-3-(piperidin-4-yl)cinnoline], the figure is no more than 100 nM; as for `CCc1cc(-c2cc(F)c3cc(C4CCN(C)CC4)nnc3c2)nn2cc(C)nc12` [Compound 122, 7-(8-ethyl-2-methylimidazo[1,2-b]pyridazin-6-yl)-5-fluoro-3-(1-methylpiperidin-4-yl)cinnoline], no more than 100 nM.
